Structures are written as SMILES.

In test [1] the test system is polymorphonuclear neutrophil (PMN). Put plainly: PMN adherence on nylon fiber column. Type of test: cell-based, human. Particulars: for percent adherence of PMN on the nylon column: three conditions: M199 "control", IL-1 80U/ml, "LPS KINE". The protocol: (§1) Purified human IL-1 was obtained from Cistron Technology, Pinebrook, New Jersey. As is known, the production of IL-1 from macrophages or circulating monocytes can be stimulated by the presence of bacterial lipopolysaccharides. Stites et al, Basic and Clinical Immunology, page 87 (1984). Accordingly, in vitro-generated IL-1 was obtained through the incubation of mononuclear leukocytes. Mononuclear leukocytes (3 x 10^6/ml) from ficoll-hypaque separation were incubated in medium 199 (M199) containing 10% fresh autologous serum with or without lipopolysaccharides 5ng/ml or with or without supernatant from C. albicans culture for 18 hours at 37° C (10% CO2) in LAB-TEK Flaskettes (Miles Inc., Naperville, Illinois). The suspension was centrifuged (150g X 10 minutes) and the supernatant filtered (0.45 micron 4) and frozen (-70° C).
Purified PMN (5 x 10^6/ml) were incubated 30 minutes at 37°C in M199, "NONE", LPS (1ng/ml), "LPS", mononuclear leukocyte conditioned medium, "CONT KINES", or in LPS stimulated mononuclear leukocyte conditioned medium, "LPS KINES". One ml was pipetted onto the top of a nylon fiber column and incubated at 37°C for 30 minutes. The PMN in the effluent samples were counted and the percent adherence of PMN on the column determined.
Two tenths ml of purified PMN (1 x 10^7/ml) was incubated 30 minutes at 37°C in M199, "control", or M199 containing IL-1 (80U/ml), "IL-1", or in LPS stimulated mononuclear leukocyte conditioned medium, "LPS KINE", with or without pentoxifylline (0.1 or 50 micrograms/ml).
Following incubation the samples were diluted to a final concentration of 5 x 10^6/ml with M199 (2% serum). One ml was placed onto the top of a nylon fiber column and incubated at 37°C for 30 minutes. The PMN in the effluent samples were counted and the percent adherence of PMN on the nylon column calculated.

For test [2] the test system is unchanged. Put plainly: PMN chemotaxis (directed migration) under agarose, chemoattractant FMLP. Particulars: for directed migration inhibited by "LPS KINE": LPS stimulated mononuclear leukocyte conditioned M199 2% serum; for directed migration inhibited by interleukin-1: MEM containing IL-1 at 0 to 80 Units/ml. Type of test: cell-based, human. The protocol:
as §1
Neutrophils were placed in the center well of a triplet and the chemoattractant (FMLP 10^-7M) was placed in one outer well and M199 was placed in the opposite well. Following 2 hours incubation at 37° C the plates were fixed and stained and the zones of migration measured. The directed migration was the distance in mm that the leading front of PMN moved towards the chemoattractant.
Pure PMN (5 x 10^6/ml) were incubated for 30 minutes at 37°C with or without pentoxifylline (0.1 or 50 micrograms/ml) in M199 2% serum, "NO ADD", M199 2% serum containing LPS (1ng/ml), "LPS", mononuclear leukocyte conditioned M199 2% serum, "CONT KINE", or LPS stimulated mononuclear leukocyte conditioned M199 2% serum, "LPS KINE". The PMN were concentrated 10 fold prior to application in the under agarose chemotaxis assay.
Pure PMN (5 x 10^6/ml) were incubated for 30 minutes at 37°C with or without pentoxifylline (0.1 or 50 micrograms/ml) in M199 5% serum, "NO ADD", M199 5% serum containing supernatant from C. albicans culture, "C.ALB", mononuclear leukocyte conditioned M199 5% serum, "CONT KINE", or C. albicans stimulated mononuclear leukocyte conditioned M199 5% serum, "C. ALB KINE". The PMN were concentrated 10 fold prior to application in the under agarose chemotaxis assay.
Pure PMN (5 x 10^6/ml) were incubated for 30 minutes at 37°C with or without pentoxifylline (0.1 or 50 micrograms/ml) in minimum essential medium (MEM) or MEM containing IL-1 at 0 to 80 Units/ml. The PMN were concentrated 10 fold prior to application inthe under agarose chemotaxis assay.

Where [3] appears, read: pentoxifylline 0.1 micrograms/ml.
[4] abbreviates: pentoxifylline 50 micrograms/ml.

With `CC(=O)CCCCn1c(=O)c2c(ncn2C)n(C)c1=O` [Pentoxifylline, pentoxifylline], the “percent adherence of PMN on the nylon column” value in test [1] (setting [3]) and in test [1] (setting [4]) was “decreased” each time. For the same compound, in test [1] (pentoxifylline 50 micrograms/ml, all four conditions: M199 "NONE", LPS 1ng/ml, "CONT KINES", "LPS KINES", 30 minutes at 37°C), the “percent adherence of PMN on the column” value is recorded as “decreased”. Besides, the “directed migration inhibited by "LPS KINE"” value in test [2] (setting [3]) and in test [2] (setting [4]) was “increased” each time. Moreover, the “directed migration inhibited by interleukin-1” value in test [2] (setting [3]) and in test [2] (setting [4]) was “increased” throughout. The “directed migration inhibited by "C.ALB KINE"” value in test [2] (pentoxifylline 50 micrograms/ml, C. albicans stimulated mononuclear leukocyte conditioned M199 5% serum) is “increased”. Moreover, the “directed migration inhibited by "CONT KINE"” value in test [2] (pentoxifylline 50 micrograms/ml, mononuclear leukocyte conditioned M199 5% serum) is “increased”.
